Test results from patent US9745267B2, “Compounds as modulators of RORC” (Boehringer Ingelheim International GmbH, priority 2013, dated 2017).

molecular target: T1, RORγt (hRORC LBD) (Homo sapiens, UniProt P51449); test: RGA Assay: nuclear receptor transactivation assay, RORγt transactivation of a luciferase reporter; assay type: cell-based; details: transiently transfected HEK 293 cells, Gal4DBD hRORC LBD, 20-24 hours incubation
T1 construct: expressed in transfected cells; host or cells: HEK 293 (transient cotransfection with pGL4.3 luc2P/GAL4UAS/Hygro reporter)
T1 sequence (P51449 269-508 limits assumed): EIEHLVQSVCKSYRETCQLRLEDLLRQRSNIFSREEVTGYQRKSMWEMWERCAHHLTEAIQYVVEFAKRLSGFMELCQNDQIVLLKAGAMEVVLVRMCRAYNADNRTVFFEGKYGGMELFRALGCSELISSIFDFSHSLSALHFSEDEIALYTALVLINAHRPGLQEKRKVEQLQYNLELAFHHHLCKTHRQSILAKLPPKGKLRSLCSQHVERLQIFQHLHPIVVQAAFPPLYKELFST
Method: A nuclear receptor transactivation assay was performed to quantitate the ability of test compounds to inhibit RORγt transactivation of a luciferase reporter. A similar assay is described in: Khan et al., Bioorganic & Medicinal Chemistry Letters 23 (2013), 532-536. The system uses transiently transfected HEK 293 cells cotransfected with two plasmids (pGL4.3, luc2P/GAL4UAS/Hygro, and pBIND, Gal4DBD hRORC LBD1-3). The positive control is co-transiently transfected with both plasmids, and the negative control contains the pGL4.3 promoter sequence. Assays were assembled in 384 well plates where transiently transfected cells and test compound at varying concentrations were incubated for 20-24 hours. The next day, assays plates are taken out and equilibrated at RT for 20-30 minutes. Bright-Glo™ Luciferase Assay System is used to detect Luciferase production. After addition of Bright GLO detection reagent, the plates were incubated at RT for 20 minutes. The plates were read on an Envision plate reader to measure luminescence signal. The RLU signal is converted to POC relative to control and blank wells.
Compound Dilution Buffer:
Bright Glo Luciferase Assay System: Promega #E2620
Thaw lysis buffer provided in kit, add 100 mL lysis buffer to substrate powder.

Row | IC50 [nM] | Structure (SMILES)
1 | 210 | CCS(=O)(=O)c1ccc(CNC(=O)N2CC3(CCC3)c3cc(-c4c(OC)ncnc4C4CC4)ccc32)cc1 [Example 128]
2 | 370 | CCS(=O)(=O)c1ccc(CNC(=O)N2CC3(CCC3)c3cc(-c4c(OC)ncnc4C4CC4)ccc32)nc1 [Example 129]
3 | 310 | CCS(=O)(=O)c1ccc(CNC(=O)N2CC3(CCCC3)c3cc(-c4c(OC)nc(N(C)C)nc4C4CC4)ccc32)cc1 [Example 130]
